Activity calls are given as the source filed them. The calls are words filed in the database; no cut-off is given here.
Experiments:
RS4-11 = assay: Antiproliferative activity against human RS4-11 cells assessed as reduction in cell viability measured after 48 hrs by MTS assay; type: functional, cell-based; conditions: RS4-11, 48 h
[1] = target: von Hippel-Lindau disease tumor suppressor/Apoptosis regulator Bcl-2 (Homo sapiens) (UniProt P10415+P40337); assay: Protac activity at VHL/BCL2 in human MOLT-4 cells assessed as induction of BCL2 degradation at 100 nM measured after 16 hrs by immunoblotting analysis; type: cell-based
NCI-H146 = assay: Antiproliferative activity against human NCI-H146 cells assessed as reduction in cell viability measured after 48 hrs by MTS assay; type: functional, cell-based; conditions: NCI-H146, 48 h
[2] = target: T1, von Hippel-Lindau disease tumor suppressor/Bcl-2-like protein 1 (Homo sapiens, UniProt Q07817+P40337); assay: Protac activity at VHL/BCL-XL in human MOLT-4 cells assessed as induction of BCL-XL degradation by measuring remaining BCL-XL level at 100 nM measured after 16 hrs by immunoblotting analysis relative to control; type: cell-based
Target sequence in this assay (P40337 whole entry, looked up): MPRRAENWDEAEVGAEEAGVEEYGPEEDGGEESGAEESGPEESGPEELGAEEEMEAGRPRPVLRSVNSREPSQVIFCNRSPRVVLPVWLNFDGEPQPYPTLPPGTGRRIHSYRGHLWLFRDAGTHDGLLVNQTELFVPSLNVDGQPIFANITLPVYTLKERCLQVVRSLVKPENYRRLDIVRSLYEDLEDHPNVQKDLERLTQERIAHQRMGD
Target sequence in this assay (Q07817 whole entry, looked up): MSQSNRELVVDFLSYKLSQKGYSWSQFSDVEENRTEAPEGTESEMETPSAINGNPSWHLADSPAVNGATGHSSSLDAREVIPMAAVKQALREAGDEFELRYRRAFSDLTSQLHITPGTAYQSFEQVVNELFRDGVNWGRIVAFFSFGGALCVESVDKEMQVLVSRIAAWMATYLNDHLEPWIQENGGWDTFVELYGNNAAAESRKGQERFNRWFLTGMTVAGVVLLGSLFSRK

[3] = Selectivity index, ratio of IC50 for human platelet to IC50 for human MOLT-4 cells
MOLT-4 [4] = assay: Antiproliferative activity against human MOLT-4 cells assessed as reduction in cell viability measured after 48 hrs by MTS assay; type: functional, cell-based; conditions: MOLT-4, 48 h
[5] = target: T1, von Hippel-Lindau disease tumor suppressor/Bcl-2-like protein 1; assay: Protac activity at VHL/BCL-XL in human MOLT-4 cells assessed as induction of BCL-XL degradation measured after 16 hrs by immunoblotting analysis; type: cell-based
Target sequence in this assay (Q07817 whole entry): as the sequence (Q07817 whole entry, looked up) above
Target sequence in this assay (P40337 whole entry): as the sequence (P40337 whole entry, looked up) above

[6] = Toxicity in human platelet assessed as reduction in cell viability measured after 48 hrs by MTS assay; type: tissue-based; conditions: human platelets
[7] = target: T2, Protein cereblon/Bcl-2-like protein 1 (Homo sapiens, UniProt Q07817+Q96SW2); assay: Protac activity at CRBN/BCL-XL in human MOLT-4 cells assessed as induction of BCL-XL degradation by measuring remaining BCL-XL level at 50 nM measured after 16 hrs by immunoblotting analysis relative to control; type: cell-based
Target sequence in this assay (Q07817 whole entry, looked up): as the sequence (Q07817 whole entry, looked up) above
Target sequence in this assay (Q96SW2 whole entry, looked up): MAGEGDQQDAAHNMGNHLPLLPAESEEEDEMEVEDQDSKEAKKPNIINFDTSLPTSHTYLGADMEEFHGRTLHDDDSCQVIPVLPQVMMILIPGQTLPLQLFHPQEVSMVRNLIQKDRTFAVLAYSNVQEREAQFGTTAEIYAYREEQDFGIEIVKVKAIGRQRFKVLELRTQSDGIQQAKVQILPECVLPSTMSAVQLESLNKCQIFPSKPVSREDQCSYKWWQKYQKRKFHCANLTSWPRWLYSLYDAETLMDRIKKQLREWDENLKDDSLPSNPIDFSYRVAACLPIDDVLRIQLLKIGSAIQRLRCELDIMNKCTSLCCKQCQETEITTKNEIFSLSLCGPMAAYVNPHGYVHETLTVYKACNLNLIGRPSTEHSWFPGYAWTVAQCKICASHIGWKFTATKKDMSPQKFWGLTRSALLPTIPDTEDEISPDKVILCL

[8] = target: Protein cereblon/Apoptosis regulator Bcl-2 (Homo sapiens) (UniProt P10415+Q96SW2); assay: Protac activity at CRBN/BCL2 in human MOLT-4 cells assessed as induction of BCL2 degradation at 50 nM measured after 16 hrs by immunoblotting analysis; type: cell-based
MOLT-4 [9] = assay: Potency index, ratio of ABT-263 IC50 to test compound IC50 for antiproliferative activity against human MOLT-4 cells assessed as reduction in cell viability measured after 48 hrs by MTS assay; type: functional
[10] = target: T2, Protein cereblon/Bcl-2-like protein 1; assay: Protac activity at CRBN/BCL-XL in human MOLT-4 cells assessed as induction of BCL-XL degradation measured after 16 hrs by immunoblotting analysis; type: cell-based
Target sequence in this assay (Q07817 whole entry): as the sequence (Q07817 whole entry, looked up) above
Target sequence in this assay (Q96SW2 whole entry): as the sequence (Q96SW2 whole entry, looked up) above

Sequence of von Hippel-Lindau disease tumor suppressor/Apoptosis regulator Bcl-2 (Homo sapiens) (P10415 whole entry, looked up): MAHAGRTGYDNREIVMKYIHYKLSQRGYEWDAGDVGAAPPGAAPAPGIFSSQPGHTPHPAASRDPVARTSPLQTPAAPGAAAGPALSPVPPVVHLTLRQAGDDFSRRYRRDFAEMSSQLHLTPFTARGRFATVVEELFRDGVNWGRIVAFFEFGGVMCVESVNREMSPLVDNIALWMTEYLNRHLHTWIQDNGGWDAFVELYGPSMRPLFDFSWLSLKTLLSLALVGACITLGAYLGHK
Sequence of von Hippel-Lindau disease tumor suppressor/Apoptosis regulator Bcl-2 (Homo sapiens) (P40337 whole entry, looked up): as the sequence (P40337 whole entry, looked up) above
Sequence of Protein cereblon/Apoptosis regulator Bcl-2 (Homo sapiens) (P10415 whole entry, looked up): as the sequence (P10415 whole entry, looked up) above
Sequence of Protein cereblon/Apoptosis regulator Bcl-2 (Homo sapiens) (Q96SW2 whole entry, looked up): as the sequence (Q96SW2 whole entry, looked up) above

Cc1ncsc1-c1ccc([C@H](C)NC(=O)[C@@H]2C[C@@H](O)CN2C(=O)[C@@H](NC(=O)CCCCCCN(C)CC[C@H](CSc2ccccc2)Nc2ccc(S(=O)(=O)NC(=O)c3ccc(N4CCN(CC5=C(c6ccc(Cl)cc6)CCC(C)(C)C5)CC4)cc3)cc2S(=O)(=O)C(F)(F)F)C(C)(C)C)cc1
IC50 (RS4-11): 189 nM | Activity [1]: inactive | IC50 (NCI-H146): 265 nM | Activity [2]: 28% | Ratio IC50 [3]: >123 | IC50 (MOLT-4 [4]): 81.3 nM | DC50 [5]: 71 nM | IC50 at 48 h [6]: > 10000 nM

CC1(C)CCC(c2ccc(Cl)cc2)=C(CN2CCN(c3ccc(C(=O)NS(=O)(=O)c4ccc(N[C@H](CCN5CCN(CCOCCOCCOCCNc6cccc7c6C(=O)N([C@@H]6CCC(=O)NC6=O)C7=O)CC5)CSc5ccccc5)c(S(=O)(=O)C(F)(F)F)c4)cc3)CC2)C1
IC50 (RS4-11): 38.5 nM | IC50 (NCI-H146): 24.6 nM | Activity [7]: 5% | Activity [8]: inactive | Ratio IC50 [3]: 90 | IC50 (MOLT-4 [4]): 17.3 nM | Ratio IC50 (MOLT-4 [9]): 12 | DC50 [10]: 4.5 nM | IC50 at 48 h [6]: 1560 nM

Cc1ncsc1-c1ccc([C@H](C)NC(=O)[C@@H]2C[C@@H](O)CN2C(=O)[C@@H](NC(=O)CCCCCN2CCN(CC[C@H](CSc3ccccc3)Nc3ccc(S(=O)(=O)NC(=O)c4ccc(N5CCN(CC6=C(c7ccc(Cl)cc7)CCC(C)(C)C6)CC5)cc4)cc3S(=O)(=O)C(F)(F)F)CC2)C(C)(C)C)cc1
IC50 (RS4-11): 76 nM | Activity [1]: inactive | IC50 (NCI-H146): 203 nM | Activity [2]: 43% | Ratio IC50 [3]: >122 | IC50 (MOLT-4 [4]): 82 nM | DC50 [5]: 93 nM | IC50 at 48 h [6]: > 10000 nM

CN(CCCCCCCn1cc(COCCOCCNc2cccc3c2C(=O)N([C@@H]2CCC(=O)NC2=O)C3=O)nn1)CC[C@H](CSc1ccccc1)Nc1ccc(S(=O)(=O)NC(=O)c2ccc(N3CCN(CC4=C(c5ccc(Cl)cc5)CCC(C)(C)C4)CC3)cc2)cc1S(=O)(=O)C(F)(F)F
IC50 (RS4-11): 62.2 nM | IC50 (NCI-H146): 61.7 nM | Activity [7]: 18% | Activity [8]: inactive | Ratio IC50 [3]: 214 | IC50 (MOLT-4 [4]): 29.2 nM | DC50 [10]: 6.3 nM | IC50 at 48 h [6]: 6250 nM

Source: ChEMBL document CHEMBL4680217, “Discovery of PROTAC BCL-X degraders as potent anticancer agents with low on-target platelet toxicity” (Eur J Med Chem, 2020)
